Measured values taken from patent publication US6555571B2, “3-methyl -chromane or thiochromane derivatives” (Chugai Seiyaku Kabushiki Kaisha, priority 1999, dated 2003).

System: increase in uterus weight by stimulus with estradiol
Experiment: Anti-estrogenic activity via oral administration (inhibition of estradiol-stimulated increase in uterus weight in ovariectomized mice)
Type: in vivo
Conditions: ovariectomized ICR mice, 17β-estradiol-benzoate 0.1 μg/day s.c. for 3 days, test compound 10 mg/kg p.o., once a day, uterus weighed 24 hours after last administration
Procedure: Oral anti-estrogenic activity in vivo of the test compound was determined according to the method described hereinafter. […] In this experiment, the test compounds and the control compound were suspended in 5% arabic gum solution and orally administered for 3 days, once a day. After 24 hours from the last administration, the test animal was sacrificed and uterus was removed and weighed.

Structure (SMILES)	Inhibition (%) of the increase in uterus weight by estradiol [%]
C[C@]1(c2ccc(O)cc2)COc2cc(O)ccc2[C@H]1CCCCCCCCC(CCCCCCC(F)(F)C(F)(F)F)C(=O)O (stereo partly drawn) [Example 4, (3′RS,4′RS)-10-[7-hydroxy-3-(4-hydroxyphenyl)-3-methylchroman-4-yl]-2-(7,7,8,8,8-pentafluorooctyl)decanoic acid]	71.4
C[C@]1(c2ccc(O)cc2)CSc2cc(O)ccc2[C@H]1CCCCCCCCCC(CCCCCCC(F)(F)C(F)(F)F)C(=O)O (stereo partly drawn) [Example 2, (3′RS,4′RS)-11-[7-hydroxy-3-(4-hydroxyphenyl)-3-methylthiochroman-4-yl]-2-(7,7,8,8,8-pentafluorooctyl)undecanoic acid]	62.0
C[C@]1(c2ccc(O)cc2)COc2cc(O)ccc2[C@H]1CCCCCCCCCC(CCCCCCC(F)(F)C(F)(F)F)C(=O)O (stereo partly drawn) [Example 3, (3′RS,4′RS)-11-[7-hydroxy-3-(4-hydroxyphenyl)-3-methylchroman-4-yl]-2-(7,7,8,8,8-pentafluorooctyl)undecanoic acid]	85.1
C[C@]1(c2ccc(O)cc2)CCc2cc(O)ccc2C1CCCCCCCCC[S+]([O-])CCCC(F)(F)C(F)(F)F (some centres unmarked) [ZM189154, reference compound]	41.7
C[C@]1(c2ccc(O)cc2)CSc2cc(O)ccc2[C@H]1CCCCCCCCC(CCCCCCC(F)(F)C(F)(F)F)C(=O)O (stereo partly drawn) [Example 1, (3′RS,4′RS)-10-[7-hydroxy-3-(4-hydroxyphenyl)-3-methylthiochroman-4-yl]-2-(7,7,8,8,8-pentafluorooctyl)decanoic acid]	78.9
